From publication PMC8482815, “Targeting Host Glycolysis as a Strategy for Antimalarial Development” (Frontiers in Cellular and Infection Microbiology, 2021)
“Also recorded” adds a separate entry of the source. Where two headings read alike, the source gives them in different places.

Tests used:
[1] = system: P. falciparum D10 (mefloquine resistant); experiment: Plasmodium falciparum growth inhibition assay, drug-resistant line D10; assay type: cell-based; conditions: D10, read-out: EC50 (nM), P. falciparum D10
Method: (§1) Banked blood (Saint Louis Children’s Hospital) and fresh blood [healthy donors] was washed and stored at 50% hematocrit at 4°C up to 1 month past the clinical expiration date and collection date, respectively. Parasite strains provided by the Malaria Research and Reference Reagent Resource Center (MR4) as follows: 3D7 (MRA-102); K1 (MRA-159); D10 (MRA-201); and IPC-5202 (MRA-1240). […]
(§2) Asynchronous cultures diluted to 1% parasitemia in 100μL wells were subjected to drug dilutions, solvent controls, and untreated uninfected erythrocyte controls in technical duplicates. Following a three-day incubation, DNA content was quantified using Picogreen (Life Technologies), as previously described ([Corbett et al., 2004]). Half-maximal effective concentrations (EC50) were determined from nonlinear regression of three biological replicates (GraphPad Prism). […]
(§3) Supplemental Table 5. […] Half-maximal inhibitor concentrations (EC50s) were determined for drug resistant malaria parasites and compared to the sensitive 3D7 strain. The respective EC50s are calculated from each of the independent biological replicates using a non-linear regression of the log of the inhibitor concentration with data from each technical replicate normalized to maximal and minimal growth using the software package GraphPad Prism. […]
(§4) means ± s.e.m calculated from three biological replicates.

P. falciparum strain 3D7 = experiment: Plasmodium falciparum growth inhibition assay (Picogreen DNA content, three-day incubation); assay type: cell-based; conditions: for S.I. + pyruvate (Supplemental Table 4): MetHb EC50 / parasite EC50, with pyruvate; for S.I. - pyruvate (Supplemental Table 4): MetHb EC50 / parasite EC50, without pyruvate; for EC50: Plasmodium falciparum; for S.I. Fold Change (Supplemental Table 4): change in S.I. with versus without pyruvate; for T.I. Fold change: change in T.I. with versus without 1mM pyruvate; for T.I. + pyruvate / T.I. - pyruvate: therapeutic index = [EC50 for MetHb formation]/[EC50 for parasite growth inhibition]; for T.I. + pyruvate: with 1mM pyruvate; for T.I. - pyruvate: without pyruvate
Method: (§5) Banked blood (Saint Louis Children’s Hospital) and fresh blood [healthy donors] was washed and stored at 50% hematocrit at 4°C up to 1 month past the clinical expiration date and collection date, respectively. Parasite strains provided by the Malaria Research and Reference Reagent Resource Center (MR4) as follows: 3D7 (MRA-102); K1 (MRA-159); D10 (MRA-201); and IPC-5202 (MRA-1240). Unless indicated, erythrocytes were cultured as previously described at 2% hematocrit in complete media (incomplete media supplemented with 27mM sodium bicarbonate, 11mM glucose, 5mM HEPES, 1mM sodium pyruvate, 0.37mM hypoxanthine, 0.01mM thymidine, 10µg/mL gentamicin, and 0.5% Albumax I (Thermo-Fisher) under 5% O2/5% CO2/90% N2 atmosphere at 37°C ([Guggisberg et al., 2014]).
Asynchronous cultures diluted to 1% parasitemia in 100μL wells were subjected to drug dilutions, solvent controls, and untreated uninfected erythrocyte controls in technical duplicates. Following a three-day incubation, DNA content was quantified using Picogreen (Life Technologies), as previously described ([Corbett et al., 2004]). Half-maximal effective concentrations (EC50) were determined from nonlinear regression of three biological replicates (GraphPad Prism).

[2] = system: P. falciparum K1 (chloroquine and sulfadoxine-pyrimethamine resistant); experiment: Plasmodium falciparum growth inhibition assay, drug-resistant line K1; assay type: cell-based; conditions: K1, read-out: EC50 (nM), P. falciparum K1
Method: as §1, §2, §3, §4

human erythrocytes = experiment: Detection and quantification of MetHb formation in cultured erythrocytes; assay type: cell-based; conditions: Homo sapiens, Erythrocyte
Method: as §5
MetHb was detected by measuring absorbance in the 630-640nm range, which is specific from other hemoglobin subforms (oxyhemoglobin, deoxyhemoglobin, and carboxyhemoglobin). Supernatants were removed and erythrocyte pellets were fully lysed and diluted, as described above. The absorption peak for oxyhemoglobin (575nm) and MetHb (630nm) were measured and the EC50 of MetHb formation was determined using non-linear regression analysis (GraphPad Prism).

P. berghei ANKA = assay type: in vivo, Swiss Webster mice
Method: (§6) Groups of five female Swiss-Webster mice were injected intraperitoneally (i.p.) with 10^3 luciferase-expressing P. berghei ANKA parasites ([Franke-Fayard et al., 2008]). Forty-eight hours post infection, mice were injected i.p. daily for five days with either 200µL of 2% methylcellulose/0.5% Tween80, 40mg/kg chloroquine, 100mg/kg HEX, 30mg/kg POM-HEX, or 5mg/kg POM-SF. Enolase inhibitors dosing were selected as approximately 3-fold lower than the maximum acutely tolerated dose for each compound by i.p. injection. Day 7 post-infection, mice were injected with 150mg/kg D-luciferin potassium salt in PBS (GoldBio) and imaged on an IVIS 100 and parasite burden assessed (Xenogen LivingImage).
The glucose mimetic 2-DG and enolase inhibitors POM-HEX, and HEX were evaluated in the P. berghei mouse model of cerebral malarial, as previously described ([Wang et al., 2018]). Briefly, in addition to groups of mice (n = 5) dosed as described above for POM-HEX and HEX, 2-DG was administered to an additional group (n = 5) at 200mg/kg twice daily and all were monitored for survival, parasitemia (blood smear Giemsa), and clinical signs of cerebral malaria (paralysis, deviation of the head, ataxia, convulsions, and coma) over 15 days.

[3] = design: method as in Lin et al., 2020; conditions: ref Lin et al., 2020; cited from earlier work
[4] = system: P. falciparum IPC-5202 (chloroquine and artemisinin resistant); experiment: Plasmodium falciparum growth inhibition assay, drug-resistant line IPC-5202; assay type: cell-based; conditions: read-out: EC50 (nM), P. falciparum IPC-5202
Method: as §1, §2, §3, §4

[5] = system: luciferase-expressing P. berghei ANKA parasites; experiment: In vivo efficacy against blood stage parasite burden (luciferase imaging); design: species or system Swiss-Webster mice; conditions: i.p. daily for five days; 30mg/kg POM-HEX, 5mg/kg POM-SF
Method: as §6

[6] = design: method as in Lin et al., 2020; conditions: cynomolgus monkeys, 100 mpk SC; replotted, ref Lin et al., 2020; cited from earlier work
[7] = Pharmacokinetics of HEX in mice (plasma, NMR 31P-1H HSQC); assay type: in vivo
Method: (§7) Adult male cynomolgus monkeys (Macaca fascicularis) with weight of 2.5-3.5 kg were used for PK studies (n = 1). To prepare HEX for injection, a stock solution of 150 mg/mL HEX in water with final pH of 7.2-7.4 was prepared. Just prior to injection, this stock was diluted with saline to desired concentration and filtered with 0.22 µm filter. A dose of 100 mg/Kg of HEX was injected subcutaneously in an overnight fasted monkey. Blood samples were collected at the following time points: before injection, 1 hr, 2 hrs, 4 hrs (when food was also given to a monkey), 8 hrs, and 24 hrs after injection. Also, a dose of 400 mg/Kg of HEX was administrated through oral gavage. To compare the PK studies in non-human primates with rodents, a 400 mg/kg dose of HEX was also injected subcutaneously in female mice (n = 1), and blood was collected before, 1 hr, and 2 hrs after injection. HEX concentrations in plasma were measured by using nuclear magnetic resonance (NMR) spectroscopy. Two hundred microliters of plasma were extracted with four hundred microliters of −20°C precooled methanol and incubated in −20°C for 45 minutes followed by spinning down in 4°C at 17,000 × g for 30 min to separate supernatant. The supernatant then was concentrated by speedvac for 4 hours and dissolved in 470 μL D2O (Sigma Aldrich,151882) and 30 μL D2O with 3%TPS as an internal standard (Sigma Aldrich, 450510) for NMR studies. NMR experiments were performed on Bruker Avance III HD 500 MHz spectrometer equipped with cryoprobe and Bruker 300 MHz with broad band observe probe. […] NMR spectra were analyzed using 3.1 version of TopSpin. HEX was quantified in the sample with high concentration of the drug (100 mpk, 1 hr after SC injection) by comparing integrals of HEX and TSP (reference) in 1H spectra. […]

[8] = Pharmacokinetics of HEX in non-human primates (plasma, NMR 31P-1H HSQC); assay type: in vivo, cynomolgus monkeys (Macaca fascicularis)
Method: as §7

## CC(C)(C)C(=O)OCOP(=O)(OCOC(=O)C(C)(C)C)C1CCCN(O)C1=O (stereo not drawn) [POM-HEX]
[1]
  EC50: 1430 ± 540 nM
P. falciparum strain 3D7
  S.I. + pyruvate (Supplemental Table 4): 1.5
  S.I. - pyruvate (Supplemental Table 4): 0.4
  S.I. Fold Change (Supplemental Table 4): 3.7
  T.I. Fold change: 3.7
  T.I. + pyruvate: 1.5
  T.I. - pyruvate: 0.4
P. falciparum strain 3D7; 3D7, 72 h, P. falciparum growth, presence of 1mM pyruvate, mean ± s.e.m., read-out: Parasite EC50 + pyruvate
  EC50: 910 ± 150 nM
P. falciparum strain 3D7; 3D7, P. falciparum growth, absence of 1mM pyruvate, mean ± s.e.m., 500 = highest concentration tested, EC50 not resolved, read-out: Parasite EC50 - pyruvate
  EC50: 2900 ± 640 nM
[2]
  EC50: 1110 ± 530 nM
Human erythrocytes; MetHb formation, absence of 1mM pyruvate, mean ± s.e.m., 500 = highest concentration tested, EC50 not resolved, read-out: MetHb EC50 - pyruvate
  EC50: 1200 ± 190 nM
Human erythrocytes; MetHb formation, presence of 1mM pyruvate, mean ± s.e.m., 500 = highest concentration tested, EC50 not resolved, read-out: MetHb EC50 + pyruvate
  EC50: 1400 ± 110 nM
P. berghei ANKA; 2DG 200 mg/kg, POM-HEX 30 mg/kg
  effect on clinical score, overall survival, cerebral malaria (in words): no more effective than 2-DG; also recorded: does not prevent cerebral malaria
[3]
  conversion in mouse plasma (in words): rapidly converted to Hemi-POM-HEX
[4]
  EC50: 966 ± 442 nM
[5]
  effect on parasite burden (in words): does not forestall a lethal parasite burden

## O=C1C(P(=O)(O)O)CCCN1O (stereo not drawn) [HEX]
P. falciparum strain 3D7
  S.I. + pyruvate (Supplemental Table 4): 27.8
  S.I. - pyruvate (Supplemental Table 4): 26.3
  S.I. Fold Change (Supplemental Table 4): 1.1
  T.I. Fold change: 1.1
  T.I. + pyruvate: 27.8
  T.I. - pyruvate: 26.3
P. falciparum strain 3D7; 3D7, read-out: Parasite EC50 - pyruvate
  EC50: 19000 ± 1000 nM
P. falciparum strain 3D7; 3D7, read-out: half maximal effective concentrations (EC50s), parasite growth
  EC50: > 15000 nM
P. falciparum strain 3D7; parasite growth versus MetHb formation
  selectivity for antiparasitic activity over erythrocyte toxicity (in words): notably selective
Human erythrocytes; read-out: MetHb EC50 + pyruvate (Supplemental Table 4)
  EC50: > 500000 nM
Human erythrocytes; read-out: MetHb EC50 - pyruvate
  EC50: > 500000 nM
Human erythrocytes; read-out: MetHb EC50 - pyruvate (Supplemental Table 4)
  EC50: > 500000 nM
P. berghei ANKA; HEX 100 mg/kg daily from day 2, Mantel-Cox
  survival: 14 days
P. berghei ANKA; d4, blood smear Giemsa, treated from day 2, HEX 100 mg/kg, 2DG 200 mg/kg, control 7.8±3.3%
  parasitemia: 3.5±1.3%
P. berghei ANKA; d6, HEX 100 mg/kg, vehicle 15.0±7.3
  clinical scores (signs of cerebral malaria): 3.8±2.0
P. berghei ANKA; n=5, HEX 100 mg/kg, sacrificed due to high parasitemia and elevated clinical score
  mice alive on day 15: two mice remained alive
[6]
  plasma concentrations at 1hr: > 500 µM
[7]; 400 mg/kg dose SC, detection limit ~1 µM
  HEX concentration in plasma, 2 hr time point: undetectable
[7]; 400mg/kg sub-cutaneous
  serum half-life: minutes
[7]; female, mouse, plasma, 400 mg/kg dose SC, read-out: HEX concentration in plasma, 1hr after injection
  concentration at 1 hr: ~170 µM
[8]; monkey, 100 mg/kg sub-cutaneous, serum/plasma, 100 mg/kg
  half-life: ~ 1 hr
[8]; monkey, 400 mpk by oral gavage
  oral bioavailability (in words): orally bioavailable
[8]; non-human primates, 100mg/kg sub-cutaneous
  time serum concentrations remain above the in vitro EC50 concentrations against Plasmodium: at least four hours
